± gives the expanded uncertainty stated by the source.
Experiment: mn = molality of the nth substance listed, in mol/kg
Conditions: 100 kPa, Liquid; for viscosity: Capillary tube (Ostwald / Ubbelohde) method; for mass density: Vibrating tube method

O=C1O[C@H]([C@@H](O)CO)C(O)=C1O [L-ascorbic acid] + O
Conditions	mass density, 293.15 K [kg/m3]	mass density, 303.15 K [kg/m3]	mass density, 313.15 K [kg/m3]	mass density, 323.15 K [kg/m3]	viscosity, 293.15 K [mPa·s]	viscosity, 303.15 K [mPa·s]	viscosity, 313.15 K [mPa·s]	viscosity, 323.15 K [mPa·s]
m1 = 0.1	1005.25 ± 0.16	1002.56 ± 0.16	999.06 ± 0.16	994.78 ± 0.16	1.042 ± 0.022	0.828 ± 0.017	0.677 ± 0.014	0.565 ± 0.012
m1 = 0.2	1012.12 ± 0.17	1009.33 ± 0.17	1005.69 ± 0.16	1001.31 ± 0.16	1.09 ± 0.023	0.858 ± 0.018	0.699 ± 0.015	0.584 ± 0.012
m1 = 0.2002	1012.12 ± 0.18	1009.33 ± 0.18	1005.69 ± 0.17	1001.31 ± 0.17	1.09 ± 0.023	0.858 ± 0.018	0.699 ± 0.015	0.584 ± 0.012
m1 = 0.3	1018.82 ± 0.17	1015.91 ± 0.17	1012.2 ± 0.17	1007.78 ± 0.17	1.128 ± 0.024	0.894 ± 0.019	0.724 ± 0.015	0.603 ± 0.013
m1 = 0.3141	1018.82 ± 0.18	1015.91 ± 0.18	1012.2 ± 0.18	1007.78 ± 0.17	1.128 ± 0.024	0.894 ± 0.019	0.724 ± 0.015	0.603 ± 0.013
m1 = 0.4	1025.4 ± 0.17	1022.39 ± 0.17	1018.62 ± 0.17	1014.08 ± 0.17	1.167 ± 0.024	0.922 ± 0.019	0.751 ± 0.016	0.623 ± 0.013

OC[C@@H](O)[C@@H](O)[C@H](O)[C@H](O)CO [mannitol] + O
Conditions	mass density, m1 = 0.2003 [kg/m3]	mass density, m1 = 0.4001 [kg/m3]	mass density, m1 = 0.5999 [kg/m3]	mass density, m1 = 0.7997 [kg/m3]	mass density, m1 = 1 [kg/m3]	viscosity, m1 = 0.2003 [mPa·s]	viscosity, m1 = 0.4001 [mPa·s]	viscosity, m1 = 0.5999 [mPa·s]	viscosity, m1 = 0.7997 [mPa·s]	viscosity, m1 = 1 [mPa·s]
293.15 K	1010.6 ± 0.18	1022.32 ± 0.18	1033.48 ± 0.18	1044.08 ± 0.19	1054.22 ± 0.19	1.106 ± 0.023	1.219 ± 0.026	1.345 ± 0.028	1.486 ± 0.031	1.634 ± 0.034
303.15 K	1007.89 ± 0.17	1019.47 ± 0.18	1030.47 ± 0.18	1040.9 ± 0.18	1050.86 ± 0.19	0.875 ± 0.018	0.957 ± 0.02	1.048 ± 0.022	1.151 ± 0.024	1.256 ± 0.026
313.15 K	1004.33 ± 0.17	1015.78 ± 0.18	1026.64 ± 0.18	1036.96 ± 0.18	1046.81 ± 0.19	0.713 ± 0.015	0.774 ± 0.016	0.842 ± 0.018	0.918 ± 0.019	0.996 ± 0.021
323.15 K	1000.02 ± 0.17	1011.34 ± 0.18	1022.08 ± 0.18	1032.29 ± 0.18	1042.03 ± 0.18	0.592 ± 0.012	0.64 ± 0.013	0.693 ± 0.015	0.751 ± 0.016	0.811 ± 0.017

From the NIST ThermoML archive (doi:10.1021/je400395u)
